Test results taken from US9714224B2, “Heterocyclic compounds and methods of their use” (Novartis AG, priority 2013, dated 2017).

Target: AT2 receptor (Homo sapiens (Human), UniProt P50052)
Assay: AT2 receptor binding assay ([125I]-CGP42112A displacement, HEK293/AT2 receptor cell membranes)
Conditions: membranes of HEK293 cells transiently transfected with AT2 receptor; radioligand [125I]-CGP42112A; RT, 1.5 hrs
Description: Biological Example 1: AT2 Receptor Binding
• 1. Trypsin-EDTA (for preparation of 100 mL) • Trypsin 0.25 g • 2% EDTA 2 mL • PBS 98 mL • Dissolve trypsin in 2% EDTA and PBS completely; sterilize the solution by passing through a […] membrane filter; store at 4° C. • 2. DMEM medium (for preparation of IL) • The powder was dissolved into 950 mL of distilled water with gentle stirring until the solution becomes clear. • Add NaHCO3 1.176 g for DMEM medium. • Adjust pH of medium to 0.2-0.3 below final working pH using 1 M NaOH or 1 M HCl. Add slowly with stirring. • Dilute to 1 liter with ddH2O. • Sterilize the medium immediately by filtration. • Store at 4° C. • 3. TE buffer • 20 mM Tris-HCl, pH 7.4. • 5 mM EDTA • 4. Binding Assay Buffer • 50 mM HEPES, pH 7.4 • 5 mM MgCl2 • 1 mM CaCl2 • 0.2% BSA • 5. […] Cells were ready for transfection after overnight incubation (the confluence reaches around 80%). • 75 μL Lipofectamine™ 2000 diluted in 6.25 mL OptiMEM I Reduced Serum Medium, was mixed gently, and incubated at room temperature for 5 minutes, 50 μg expression plasmid DNA diluted in 6.25 mL OptiMEM I Reduced Serum Medium without serum was mixed gently. • After the 5 minute incubation, the diluted DNA was combined with the diluted Lipofectamine™ 2000 (total volume is 12.5 mL). […]

AT2 receptor, sequence (P50052 whole entry, species assumed): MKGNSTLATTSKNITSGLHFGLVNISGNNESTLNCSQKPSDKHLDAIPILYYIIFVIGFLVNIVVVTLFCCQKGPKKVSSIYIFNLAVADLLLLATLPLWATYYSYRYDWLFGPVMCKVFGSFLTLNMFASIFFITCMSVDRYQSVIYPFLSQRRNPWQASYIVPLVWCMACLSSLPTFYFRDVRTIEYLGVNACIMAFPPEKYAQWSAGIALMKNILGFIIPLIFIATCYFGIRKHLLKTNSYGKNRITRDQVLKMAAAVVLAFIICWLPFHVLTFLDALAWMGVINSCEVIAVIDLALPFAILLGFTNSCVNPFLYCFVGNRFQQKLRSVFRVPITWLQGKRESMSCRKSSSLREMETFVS

| SMILES | IC50 |
| --- | --- |
| COc1ccc2c(c1OCc1ccccc1)CC(C(=O)O[C@@H]1O[C@H](C(=O)O)[C@@H](O)[C@H](O)[C@H]1O)N(C(=O)C(c1ccccc1)c1ccccc1)C2 (some centres unmarked) [Compound 33] | 0.431 µM |
| COc1ccc2c(c1O)C[C@@H](C(=O)NS(=O)(=O)N(C)C)N(C(=O)C(c1ccccc1)c1ccccc1)C2 [Compound 41] | 1.79 µM |
